Data from patent US7179818B2, “Substituted aminoquinuclidine compounds” (Ortho-McNeil Pharmaceutical, Inc., priority 2002, dated 2007).
Structures can show the parent of a compound that is named as a salt. Where two headings read alike, the source gives them in different places.

Tests used:
δ-opioid receptor = target: T1, δ-opioid receptor (Rattus norvegicus, UniProt P33533); assay: Rat brain δ-opioid receptor binding assay ([3H]DPDPE); settings: for δ-Opioid Receptor Binding, Inhibition at 1 μM: single concentration 1 μM
T1 construct: from tissue; host or cells: rat (Wistar) forebrain homogenate, particulate preparation
T1 sequence (P33533 whole entry): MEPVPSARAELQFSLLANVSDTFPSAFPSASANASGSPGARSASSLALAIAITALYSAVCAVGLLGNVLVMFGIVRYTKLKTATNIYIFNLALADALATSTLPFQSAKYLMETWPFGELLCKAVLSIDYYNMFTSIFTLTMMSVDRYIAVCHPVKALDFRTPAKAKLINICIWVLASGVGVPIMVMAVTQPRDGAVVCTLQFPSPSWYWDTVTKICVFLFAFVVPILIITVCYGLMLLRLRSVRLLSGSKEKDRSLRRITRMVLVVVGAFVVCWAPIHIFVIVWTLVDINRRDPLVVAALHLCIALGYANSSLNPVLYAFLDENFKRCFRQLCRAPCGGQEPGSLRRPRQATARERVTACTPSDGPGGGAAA
Protocol: (§1) Male, Wistar rats (150–250 g, VAF, Charles River, Kingston, N.Y.) are killed by cervical dislocation, and their brains removed and placed immediately in ice cold Tris HCl buffer (50 mM, pH 7.4). The forebrains are separated from the remainder of the brain by a coronal transection, beginning dorsally at the colliculi and passing ventrally through the midbrain-pontine junction. After dissection, the forebrains are homogenized in Tris buffer in a Teflon®-glass homogenizer. The homogenate is diluted to a concentration of 1 g of forebrain tissue per 100 mL Tris buffer and centrifuged at 39,000×G for 10 min. The pellet is resuspended in the same volume of Tris buffer with several brief pulses from a Polytron homogenizer. This particulate preparation is used for the δ-opioid binding assays. Following incubation with the δ-selective peptide ligand [^3H]DPDPE at 25° C., the tube contents are filtered through Whatman GF/B filter sheets on a Brandel cell harvester. The tubes and filters are rinsed three times with 4 mL of 10 mM HEPES (pH 7.4), and the radioactivity associated with the filter circles determined using Formula 989 scintillation fluid (New England Nuclear, Boston, Mass.) in a scintillation counter.
The data are used to calculate either the % inhibition compared to control binding (when only a single concentration of test compound is evaluated) or a Ki value (when a range of concentrations are tested).
% Inhibition was calculated as: […]
(§2) Ki value is calculated using the LIGAND (Munson, P. J. and Rodbard, D., Anal. Biochem. 107: 220–239, 1980) data analysis program.

μ-opioid receptor = target: T2, μ-opioid receptor (Rattus norvegicus, UniProt P33535); assay: Rat brain μ-opioid receptor binding assay ([3H]DAMGO)
T2 construct: from tissue; host or cells: rat (Wistar) forebrain homogenate, particulate preparation
T2 sequence (P33535 whole entry): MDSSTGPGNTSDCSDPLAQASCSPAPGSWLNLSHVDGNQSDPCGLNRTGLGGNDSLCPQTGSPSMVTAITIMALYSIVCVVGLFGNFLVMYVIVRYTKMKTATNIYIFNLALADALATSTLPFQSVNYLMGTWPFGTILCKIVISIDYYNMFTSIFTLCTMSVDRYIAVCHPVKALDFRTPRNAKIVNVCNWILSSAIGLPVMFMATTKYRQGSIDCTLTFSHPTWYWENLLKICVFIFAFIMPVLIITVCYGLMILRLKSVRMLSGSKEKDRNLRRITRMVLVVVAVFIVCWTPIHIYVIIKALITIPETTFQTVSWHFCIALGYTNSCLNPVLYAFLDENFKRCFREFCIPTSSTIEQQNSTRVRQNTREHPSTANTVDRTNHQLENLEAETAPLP
Protocol: as §1, with “Chades” for “Charles”, “dislocation” for “dislocation,”, “μ-opioid” for “δ-opioid”, “Following incubation with the δ-selective peptide ligand [^3H]DPDPE at 25° C., the tube contents are filtered through Whatman GF/B filter sheets on a Brandel cell harvester.” left out, “7.4)” for “7.4),”
The data are used to calculate either the % inhibition compared to control binding (when only a single concentration of test compound is evaluated) or a Ki value (when a range of concentrations is tested).
% Inhibition is calculated as: […]
as §2

[1] = tested on: acetylcholine bromide-induced abdominal constriction response; assay: Mouse acetylcholine bromide-induced abdominal constriction assay (MAIT); format: in vivo; settings: 150 μmole/Kg p.o., acetylcholine bromide 5.5 mg/kg i.p. 30 min later
Protocol: The mouse acetylcholine-induced abdominal constriction assay, as described by Collier et al. in Brit. […] The test drugs or appropriate vehicles were administered orally (p.o.) and 30 min later the animal received an intraperitoneal (i.p.) injection of 5.5 mg/kg acetylcholine bromide (Matheson, Coleman and Bell, East Rutherford, N.J.). The mice were then placed in groups of three into glass bell jars and observed for a ten min observation period for the occurrence of an abdominal constriction response (defined as a wave of constriction and elongation passing caudally along the abdominal wall, accompanied by a twisting of the trunk and followed by extension of the hind limbs). For compounds of the present invention, the percent inhibition of this response to a nociceptive stimulus (equated to °/analgesia) was calculated as follows:
[formula] • CAR: Control Animal Responses • DTAR: Drug-Treated Animal Responses

[2] = rat forebrain membranes, [3H]DPDPE
[3] = rat forebrain membranes, [3H]DPDPE, 25° C., read-out: δ-Opioid Receptor Binding Ki
[4] = rat forebrain membranes, [3H]DAMGO, 25° C., read-out: μ-Opioid Receptor Binding Ki

Compound	Ki (δ-opioid receptor)	Ki (μ-opioid receptor)	MAIT % Inhibition [1]	other results
CCN(CC)C(=O)c1ccc(N(Cc2ccccc2F)C2CN3CCC2CC3)cc1 (centres unmarked) (as salt: fumarate) (hydrate or solvate) [Compound 18]	–	–	–	melting point: 193 to 196 °C
CCN(CC)C(=O)c1ccc(N(Cc2ccccc2)[C@H]2CN3CCC2CC3)cc1 [Compound 20, (−)-(R)-N,N-Diethyl-4-[phenylmethyl-(1-azabicyclo[2.2.2]octan-3-amino)]benzamide Fumarate Hydrate [1:1.5:1]]	0.011 µM	1.24 µM	57.1%	–
N,N-Diethyl-4-[phenyl-(1-azabicyclo[2.2.2]octan-3-amino)]benzamide Fumarate [Compound 1, N,N-Diethyl-4-[phenyl-(1-azabicyclo[2.2.2]octan-3-amino)]benzamide Fumarate [1:1]]	–	–	55.6%	–
CCN(CC)C(=O)c1ccc(N(Cc2cccc(Cl)c2)C2CN3CCC2CC3)cc1 (centres unmarked) [Compound 17]	0.021 µM	0.914 µM	16.7%	–
N-Morpholino-4-[phenyl-(1-azabicyclo[2.2.2]octan-3-amino)]benzamide Fumarate [Compound 15, N-Morpholino-4-[phenyl-(1-azabicyclo[2.2.2]octan-3-amino)]benzamide Fumarate [1:1]]	–	–	–	δ-Opioid Receptor Binding, Inhibition at 1 μM (δ-opioid receptor; [2]): <50%
N,N-Diethyl-4-[(3-thiomethylphenyl)-(trans-2-methyl-1-azabicyclo[2.2.2]octan-3-amino)]benzamide Fumarate [Compound 10, N,N-Diethyl-4-[(3-thiomethylphenyl)-(trans-2-methyl-1-azabicyclo[2.2.2]octan-3-amino)]benzamide Fumarate [1:1.5]]	–	–	25%	–
N,N-Diethyl-4-[(3-trifluoromethylphenyl)-(1-azabicyclo[2.2.2]octan-3-amino)]benzamide Hydrochloride [Compound 4, N,N-Diethyl-4-[(3-trifluoromethylphenyl)-(1-azabicyclo[2.2.2]octan-3-amino)]benzamide Hydrochloride [1:1]]	–	–	–	δ-Opioid Receptor Binding, Inhibition at 1 μM (δ-opioid receptor; [2]): <50%
N,N-Diethyl-4-[phenyl-(1-azabicyclo[2.2.2]octan-3-amino)]-3-fluorobenzamide Fumarate [Compound 11, N,N-Diethyl-4-[phenyl-(1-azabicyclo[2.2.2]octan-3-amino)]-3-fluorobenzamide Fumarate [1:1]]	–	–	–	Ki (δ-opioid receptor; [3]): 0.255 µM; Ki (μ-opioid receptor; [4]): 8.33 µM
CCN(CC)C(=O)c1ccc(N(Cc2ccccc2)[C@@H]2CN3CCC2CC3)cc1 [Compound 21, (+)-(S)-N,N-Diethyl-4-[phenylmethyl-(1-azabicyclo[2.2.2]octan-3-amino)]benzamide Fumarate Hydrate [1:1.5:1]]	0.02 µM	2.55 µM	35.720%	–
N,N-Diethyl-4-[phenyl-(cis-2-methyl-1-azabicyclo[2.2.2]octan-3-amino)]benzamide [Compound 9]	–	–	20%	–
N,N-Diethyl-4-[phenyl-(1-azabicyclo[2.2.2]octan-3-amino)]-3-chlorobenzamide Fumarate [Compound 13, N,N-Diethyl-4-[phenyl-(1-azabicyclo[2.2.2]octan-3-amino)]-3-chlorobenzamide Fumarate [1:1]]	–	–	–	Ki (δ-opioid receptor; [3]): 0.88 µM
N,N-Diethyl-4-[(3,5-dichlorophenyl)-(1-azabicyclo[2.2.2]octan-3-amino)]benzamide Hydrochloride [Compound 7, N,N-Diethyl-4-[(3,5-dichlorophenyl)-(1-azabicyclo[2.2.2]octan-3-amino)]benzamide Hydrochloride [1:1]]	–	–	–	δ-Opioid Receptor Binding, Inhibition at 1 μM (δ-opioid receptor; [2]): <50%
CCN(CC)C(=O)c1ccc(N(Cc2cccc(F)c2)C2CN3CCC2CC3)cc1 (centres unmarked) [Compound 19]	0.0055 µM	1.12 µM	18.2%	–
CCN(CC)C(=O)c1ccc(N(Cc2ccccc2)C2CN3CCC2CC3)cc1 (centres unmarked) (as salt: fumarate) (hydrate or solvate) [Compound 16, N,N-Diethyl-4-[phenylmethyl-(1-azabicyclo[2.2.2]octan-3-amino)]benzamide Fumarate Hydrate [1:1.5:1]]	–	–	–	melting point: 107 to 110 °C
N-pyrrolidinyl-4-[(4-methoxyphenyl)-(1-azabicyclo[2.2.2]octan-3-amino)]benzamide Fumarate [Compound 14, N-pyrrolidinyl-4-[(4-methoxyphenyl)-(1-azabicyclo[2.2.2]octan-3-amino)]benzamide Fumarate [1:1]]	–	–	–	δ-Opioid Receptor Binding, Inhibition at 1 μM (δ-opioid receptor; [2]): <50%
CCN(CC)C(=O)c1ccc(N(c2ccccc2)[C@H]2C3CCN(CC3)[C@@H]2C)cc1 [Compound 8, N,N-Diethyl-4-[phenyl-(trans-2-methyl-1-azabicyclo[2.2.2]octan-3-amino)]benzamide Fumarate Hydrate [1:1:0.5]]	–	–	–	Ki (δ-opioid receptor; [3]): 0.026 µM; Ki (μ-opioid receptor; [4]): 1.34 µM
CCN(CC)C(=O)c1ccc(N(Cc2ccccc2)C2CN3CCC2CC3)cc1 (centres unmarked) [Compound 16, N,N-Diethyl-4-[phenylmethyl-(1-azabicyclo[2.2.2]octan-3-amino)]benzamide Fumarate Hydrate [1:1.5:1]]	0.05 µM	1.92 µM	50%	–
CCN(CC)C(=O)c1ccc(N(Cc2cccc(Cl)c2)C2CN3CCC2CC3)cc1 (centres unmarked) (as salt: fumarate) [Compound 17]	–	–	–	melting point: 193 to 196 °C
CCN(CC)C(=O)c1ccc(N(Cc2ccccc2F)C2CN3CCC2CC3)cc1 (centres unmarked) [Compound 18]	0.039 µM	1.16 µM	28.6%	–
N,N-Diethyl-4-[phenyl-(1-azabicyclo[2.2.2]octan-3-amino)]-3-methylbenzamide Fumarate [Compound 12, N,N-Diethyl-4-[phenyl-(1-azabicyclo[2.2.2]octan-3-amino)]-3-methylbenzamide Fumarate [1:1]]	–	–	–	Ki (δ-opioid receptor; [3]): 0.608 µM; Ki (μ-opioid receptor; [4]): 10 µM
